These results are taken from PubChem BioAssay (NCI).

Several values for one entry are separate records, joined by “and”; a condition that tells them apart may be missing. Equal values may be shown once.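 Each compound was tested at five concentrations against cells in 96-well plates for 48 hours. GI50 = concentration required for 50% inhibition of growth. TGI: concentration producing complete growth inhibition.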

Experiment in all cases: growth of human tumour cells (NCI), 48 h
Assay [1] relates to HOP-62 NSCLC.
The test system of assay [2] is SR leukemia.
Assay [3] relates to SK-OV-3 ovarian.
The subject of assay [4] is NCI/ADR-RES ovarian.
The subject of assay [5] is SK-MEL-5 melanoma.
Assay [6] has as its system OVCAR-5 ovarian.
Assay [7] concerns 786-0 renal.
The test system of assay [8] is SF-539 CNS.
Assay [9] deals with RPMI-8226 leukemia.
For assay [10], the system named is CAKI-1 renal.

For the compound `COc1cc(CNc2nc3cc(N)cc(N)c3nc2-c2ccccc2)cc(OC)c1`, the GI50 in assay [1] was 13.5 µM; in [2] it was 3.84 µM; in assay [3], 15.1 µM; in assay [4] it was 5.47 µM; in [5], 13 µM; in assay [6] it was 5.9 µM. The GI50 is 12.7 µM in assay [7], 5.29 µM in assay [8] and 16 µM in [10]. For the same compound, the TGI in [1] is 31.3 µM; in [2], over 100 µM; in [3] it was 54.2 µM; in assay [4], 33.2 µM; in assay [5], 41.7 µM; in assay [6], 29.2 µM. Moreover, the TGI in assay [7] is 44.2 µM; in [8] it was 21.4 µM; in assay [9] it was 6.22 µM; in assay [10] it was over 100 µM.
For the compound `CC(=O)O[C@H]1C(=O)[C@@]2(C)C([C@H](OC(=O)c3ccccc3)[C@]3(O)C[C@H](OC(=O)[C@H](O)[C@@H](NC(=O)c4ccccc4)c4ccccc4)C(C)=C1C3(C)C)[C@]1(OC(C)=O)CO[C@@H]1C[C@@H]2O` (stereo partly drawn), the TGI in [1] is over 50 µM; in assay [2] it was over 50 µM; in [3], over 50 µM; in [4], 41.9 µM; in assay [5] it was over 50 µM; in [6] it was over 50 µM. Besides, the TGI in assay [7], in assay [8], in assay [9] and in assay [10] was over 50 µM each time. Further, the GI50 in assay [2] is under 0.005 µM; in [4] it was 1.81 µM; in assay [5], 0.00785 µM; in assay [6] it was 0.0226 µM; in assay [7], 0.0465 µM; in assay [8] it was 0.00872 µM. Also, the GI50 in assay [9] was under 0.005 µM.
`COc1ccc2c(c1)c(-c1nc(-c3c[nH]c4ncccc34)cs1)cn2CCCN1CCOCC1`: the GI50 is 2.24 µM in assay [1]; 2.3 µM in [2]; 2.83 µM in assay [3]; 3.02 µM in assay [4]; 1.83 µM in [5]; 2.6 µM in [6]. In addition, the GI50 in [7] is 1.74 µM; in assay [8], 1.74 µM; in assay [9] it was 1.92 µM; in assay [10], 1.88 µM. In addition, the TGI amounted to 7.18 µM in [1]; 7 µM in assay [2]; 8.28 µM in [3]; 11.3 µM in [4]; 3.35 µM in assay [5]; 7.91 µM in assay [6]. The TGI was 3.44 µM in assay [7], 3.67 µM in assay [8], 4.86 µM in assay [9] and 4.67 µM in [10].
With `COc1ccc(OC)c(NCC(=O)n2nc(/C=C\c3ccc(O)c(OC)c3)cc2/C=C\c2ccc(O)c(OC)c2)c1`, the GI50 in assay [1] is 3.03 µM; in assay [3], 2.38 µM; in [4] it was 3.5 µM; in assay [5], 1.66 µM; in assay [6], 2.35 µM; in [7] it was 2.1 µM. Besides, the results for the GI50 in assay [8] and in [9] were 1.74 µM and 0.702 µM, respectively. Besides, the TGI was 13 µM in assay [1]; 6.23 µM in assay [3]; over 100 µM in assay [4]; 4.91 µM in assay [5]; 5.54 µM in [6]; 7.97 µM in assay [7]. In addition, the TGI came out at 6.15 µM in assay [8] and 3.54 µM in assay [9].
As for `O=C(Nc1ccc(N=C=S)cc1Cl)c1cc(Br)cc(Br)c1O`, the TGI is 84.4 µM in [1]; 62 µM in [2]; over 100 µM in [3]; 58 µM in [4]; 46.5 µM in assay [5]; 50.9 µM in assay [6]. Besides, the TGI in assay [7] was 75.2 µM; in [8] it was 54.6 µM; in [10], over 100 µM.
With `O=C1CC(c2ccccc2)Oc2ccccc21` (stereo not drawn), the TGI in assay [1] was over 100 µM; in [2], 50.6 µM; in assay [3], over 100 µM; in assay [4] it was over 100 µM; in assay [5] it was 65.8 µM; in assay [7] it was over 100 µM. Moreover, the TGI in assay [8] is 55 µM; in [9], 37.9 µM; in assay [10] it was over 100 µM.
On to `COc1ccc(OC)c(/C=C/c2nc(=S)n(-c3ccc(Cl)cc3)[nH]2)c1`, for which the GI50 in [1] was 6.48 µM; in [3] it was 9.4 µM; in assay [4] it was 3.63 µM; in assay [5] it was 3.58 µM; in assay [6] it was 70.3 µM; in assay [7], 7.17 µM. In addition, the figures for the GI50 in assay [8] and in assay [9] were 4.05 µM and 5.22 µM, respectively. For the same compound, the TGI in [1], in assay [3], in assay [4], in assay [5], in [6] and in [7] was over 100 µM in each case. In addition, the results for the TGI in [8] and in [9] were 97.9 µM and over 100 µM, respectively.
In the case of `N#Cc1nc2c(S(=O)(=O)c3ccc(Cl)cc3)c(N)n(Nc3cccc(Cl)c3)c2nc1C#N`, the GI50 in assay [1] is 0.109 µM; in assay [3], 0.0858 µM; in assay [4], 0.0505 µM; in [5] it was 0.115 µM; in assay [6], 0.0219 µM and 0.0224 µM; in [7], 0.0389 µM. Further, the GI50 in assay [8] was 0.0307 µM; in [9] it was 0.00251 µM; in assay [10], 0.0311 µM. Further, the TGI in [4] was over 100 µM; in assay [5], 0.657 µM; in [6], 0.106 µM and 0.175 µM; in assay [8], 0.179 µM; in [9] it was 0.019 µM and 0.0668 µM.
Consider `CCCCCOc1ccc(/C=N/Nc2cc(C)nc3ccc(Cl)cc23)cc1`, for which the GI50 was 1.62 µM in [1]; 0.369 µM in [2]; 1.65 µM in assay [3]; 1.89 µM in [4]; 1.63 µM in assay [5]; 1.82 µM in assay [6]. The figures for the GI50 in [7], in [8] and in assay [10] were 1.78 µM, 1.86 µM and 1.64 µM, respectively. The TGI is 3.29 µM in assay [1]; 1.73 µM in assay [2]; 3.08 µM in assay [3]; 3.92 µM in assay [4]; 3.01 µM in [5]; 3.23 µM in assay [6]. For the same compound, the TGI in [7] amounted to 3.32 µM; in assay [8], 3.3 µM; in assay [10] it was 3.03 µM.
On to `O=C(NCCNCCO)c1ccc2c(c1)oc1cc3ccccc3c(=O)n12`, for which the GI50 is over 50 µM in assay [1]; 24.8 µM in assay [2]; over 50 µM in assay [3]; over 50 µM in assay [4]; 12.6 µM in assay [5]; over 50 µM in assay [7]. The figures for the GI50 in assay [8] and in assay [9] were 16.2 µM and 33.8 µM, respectively. For the same compound, the TGI was over 50 µM in [1]; over 50 µM in [2]; over 50 µM in assay [3]; over 50 µM in assay [4]; 32.1 µM in [5]; over 50 µM in assay [7]. The results for the TGI in assay [8] and in assay [9] were 33.2 µM and over 50 µM, respectively.
As to `COC(=O)OC1C(O[C@H]2C[C@H]3[C@@H]4CC=C5C[C@@H](O)CC[C@]5(C)[C@H]4CC[C@]3(C)[C@H]2[C@H](C)C(=O)CCC(C)C)OCC(O)C1OC1OCC(O)C(O)C1OC(=O)c1ccc(OC)cc1` (stereo partly drawn), the GI50 in [1] is 0.0102 µM; in assay [3] it was 0.0073 µM; in [4], over 27.5 µM; in assay [5], 0.014 µM; in [6], 0.0982 µM; in [7], under 0.00275 µM. The results for the GI50 in assay [8], in assay [9] and in assay [10] were under 0.00275 µM, under 0.00275 µM and 0.0191 µM, respectively. The TGI in assay [1] was 0.673 µM; in assay [3] it was 0.611 µM; in assay [4], over 27.5 µM; in assay [5] it was 0.279 µM; in assay [6] it was 2.63 µM; in [7], 0.503 µM. Further, the results for the TGI in [8], in assay [9] and in assay [10] were 0.0091 µM, 0.00491 µM and 0.447 µM, respectively.
`COCC([C@@H](O)C(O)C(=O)NCC[C@@H](C)c1nc(/C=C/CC2OC3(C[C@H](O)C2C)OC(C(C[C@H](O)C(C)[C@H](O)C(C)/C=C(C)/C(C)=C/C=C/C(C)=C/C#N)OC)[C@@H](OP(=O)(O)O)C3(C)C)co1)N(C)C` (stereo partly drawn): the TGI in [3] was 0.00154 µM; in assay [4] it was 0.00258 µM; in [6], 0.000345 µM; in assay [7], 0.000314 µM; in [8], 0.00034 µM; in [10], 0.000325 µM.
Take `Cc1nc(N)nc(CCC(=O)Nc2cccc(C(F)(F)F)c2)c1-c1ccc(Cl)cc1`: the TGI in assay [1] was over 100 µM; in [2], 56.8 µM; in assay [3], over 100 µM; in assay [5], over 100 µM; in assay [6], over 100 µM; in assay [7], over 100 µM. Moreover, the TGI in [8], in [9] and in assay [10] was over 100 µM each time.
For the compound `CN[C@@H](C)C(=O)N[C@H]1CN(S(=O)(=O)c2cccc(S(=O)(=O)N3CC[C@H]4CC[C@@H](C(=O)NC(c5ccccc5)c5ccccc5)N4C(=O)[C@@H](NC(=O)[C@H](C)NC)C3)c2)CC[C@H]2CC[C@@H](C(=O)NC(c3ccccc3)c3ccccc3)N2C1=O`, the GI50 was 5.14 µM in assay [1]; 1.95 µM in assay [2]; over 100 µM in assay [4]; 9.56 µM in assay [5]; 18.6 µM in [6]; 20 µM in [7]. In addition, the GI50 in assay [8] is under 0.01 µM; in assay [9], 3.92 µM; in [10], 58.4 µM. For the same compound, the TGI in assay [1] was over 100 µM; in assay [2], over 100 µM; in assay [4] it was over 100 µM; in assay [5], 34.3 µM; in assay [6], 39.9 µM; in assay [7], 43.8 µM. For the same compound, the TGI in assay [8] was 0.509 µM; in assay [9] it was 99.2 µM; in assay [10], over 100 µM.
`FC(F)(F)Oc1cccc(-c2cc(NCCCCCCNc3cc(-c4cccc(OC(F)(F)F)c4)nc4ccc(N5CCCC5)cc34)c3cc(N4CCCC4)ccc3n2)c1`: the GI50 in [1] was 2.04 µM; in [3], 1.78 µM; in [4], 2.07 µM; in assay [5], 1.77 µM; in [6], 1.76 µM; in assay [7], 1.8 µM. In addition, the GI50 in assay [8] is 1.85 µM; in assay [10] it was 1.65 µM. For the same compound, the TGI in assay [1] was 4.44 µM; in assay [3], 3.36 µM; in assay [4], 4.5 µM; in [5], 3.22 µM; in assay [6], 3.18 µM; in assay [7] it was 3.49 µM. The TGI came to 3.33 µM in assay [8] and 3.01 µM in assay [10].
`COC(=O)C1C(=O)O[C@@H](c2ccc3c(c2)OCO3)C1C(=O)OC` (mixture of isomers): the TGI in assay [1], in [2], in [3], in assay [5], in assay [6] and in assay [7] was over 100 µM in each case. Further, the TGI in assay [8], in assay [9] and in [10] was over 100 µM throughout.
For the compound `COc1ccc2sc3c(NCCCN)nc4ccccc4c3c(=O)c2c1`, the GI50 is 1.7 µM in [1]; 0.832 µM in assay [2]; 1.61 µM in assay [3]; 1.82 µM in assay [5]; 1.68 µM in assay [6]; 1.63 µM in assay [7]. In addition, the GI50 is 1.75 µM in assay [8], 1.85 µM in assay [9] and 1.6 µM in assay [10]. The TGI in assay [1] came out at 3.46 µM; in [2], 3.22 µM; in [3], 3.66 µM; in assay [5], 3.37 µM; in assay [6], 3.28 µM; in assay [7], 3.11 µM. The TGI in [8] was found to be 3.17 µM; in [9], 3.89 µM; in [10], 3.06 µM.
